Test results from patent US8058475B2, “Substituted cyclohexylmethyl compounds” (Gruenenthal GmbH, priority 2005, dated 2011).
Structures can show the parent of a compound that is named as a salt. Where two headings read alike, the source gives them in different places.

Tests used:
[1] = target: human μ-opiate receptor (Homo sapiens, UniProt P35372); assay: Affinity for the human μ-opiate receptor ([3H]-naloxone displacement, SPA, CHO-K1 membrane preparation); type: binding; conditions: for inhibition at 1 µM: read-out: μ-Opioid receptor, % inhibition [1 μM]; for Ki: read-out: μ-Opioid receptor, Ki
[2] = target: T1, Serotonin (5HT) reuptake (Rattus norvegicus, UniProt P31652); assay: Serotonin (5HT) reuptake inhibition in rat brain synaptosomes (P2 fraction); type: biochemical; conditions: for inhibition at 10 µM: read-out: Serotonin reuptake, % inhibition [10 μM]
T1 construct: synaptosomes are freshly isolated from areas of rat brain; from tissue; host or cells: rat brain synaptosomes (P2 fraction)
Source text: (§1) Noradrenaline (NA) and Serotonin (5HT) Reuptake Inhibition
(§2) In order to be able to carry out these studies in vitro, synaptosomes are freshly isolated from areas of rat brain. A so-called “P2” fraction prepared by the method of Gray and Whittaker (E. G. Gray and V. P. Whittaker (1962) J. Anat. 76, 79-88) is used in each case. For the NA uptake, these vesicular particles are isolated from the hypothalamus of male rat brains.
(§3) A detailed description of the method will be found in the literature (M. Ch. Frink, H. H. Hennies, W. Englberger, M. Haurand and B. Wilffert (1996) Arzneim.-Forsch./Drug Res. 46 (III), 11, 1029-1036).

[3] = target: T2, Noradrenaline (NA) reuptake (Rattus norvegicus, UniProt Q63380); assay: Noradrenaline (NA) reuptake inhibition in rat brain synaptosomes (hypothalamus, P2 fraction); type: biochemical
T2 construct: synaptosomes are freshly isolated from areas of rat brain; from tissue; host or cells: rat hypothalamus synaptosomes (P2 fraction)
Source text: as §1, §2, §3

[4] = 1 μM test substance, inhibition of specific [3H]-naloxone binding
[5] = read-out: NA reuptake, % inhibition [10 μM]
[6] = read-out: Na reuptake, % inhibition [10 μM]

Sequence of human μ-opiate receptor (P35372 whole entry): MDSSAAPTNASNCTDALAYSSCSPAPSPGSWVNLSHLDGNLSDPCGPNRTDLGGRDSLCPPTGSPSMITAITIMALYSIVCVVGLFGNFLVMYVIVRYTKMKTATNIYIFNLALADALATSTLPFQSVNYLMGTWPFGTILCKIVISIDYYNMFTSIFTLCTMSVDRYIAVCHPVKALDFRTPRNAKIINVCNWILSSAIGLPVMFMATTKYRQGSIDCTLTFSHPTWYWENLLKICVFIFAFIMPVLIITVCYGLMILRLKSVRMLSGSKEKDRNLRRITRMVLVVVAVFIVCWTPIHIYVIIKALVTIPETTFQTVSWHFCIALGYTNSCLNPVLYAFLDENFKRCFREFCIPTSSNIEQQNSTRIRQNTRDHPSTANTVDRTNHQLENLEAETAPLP
T2 sequence (Q63380 1-617): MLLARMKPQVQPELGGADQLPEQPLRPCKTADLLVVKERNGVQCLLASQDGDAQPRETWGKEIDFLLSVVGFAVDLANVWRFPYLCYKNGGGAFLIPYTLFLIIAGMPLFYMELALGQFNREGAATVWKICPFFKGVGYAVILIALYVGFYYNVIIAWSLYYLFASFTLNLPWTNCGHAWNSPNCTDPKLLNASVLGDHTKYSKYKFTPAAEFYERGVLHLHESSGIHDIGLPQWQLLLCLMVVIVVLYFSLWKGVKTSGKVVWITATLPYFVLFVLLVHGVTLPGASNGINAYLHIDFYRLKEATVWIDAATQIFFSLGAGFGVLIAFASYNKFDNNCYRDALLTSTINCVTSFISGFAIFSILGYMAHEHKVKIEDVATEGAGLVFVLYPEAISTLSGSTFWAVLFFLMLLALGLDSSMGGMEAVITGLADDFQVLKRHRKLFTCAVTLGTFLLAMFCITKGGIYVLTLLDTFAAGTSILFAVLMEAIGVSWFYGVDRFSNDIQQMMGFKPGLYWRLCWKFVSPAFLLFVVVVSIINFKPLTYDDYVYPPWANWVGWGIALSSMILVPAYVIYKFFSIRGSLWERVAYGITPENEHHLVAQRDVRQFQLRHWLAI
T1 sequence (P31652 whole entry): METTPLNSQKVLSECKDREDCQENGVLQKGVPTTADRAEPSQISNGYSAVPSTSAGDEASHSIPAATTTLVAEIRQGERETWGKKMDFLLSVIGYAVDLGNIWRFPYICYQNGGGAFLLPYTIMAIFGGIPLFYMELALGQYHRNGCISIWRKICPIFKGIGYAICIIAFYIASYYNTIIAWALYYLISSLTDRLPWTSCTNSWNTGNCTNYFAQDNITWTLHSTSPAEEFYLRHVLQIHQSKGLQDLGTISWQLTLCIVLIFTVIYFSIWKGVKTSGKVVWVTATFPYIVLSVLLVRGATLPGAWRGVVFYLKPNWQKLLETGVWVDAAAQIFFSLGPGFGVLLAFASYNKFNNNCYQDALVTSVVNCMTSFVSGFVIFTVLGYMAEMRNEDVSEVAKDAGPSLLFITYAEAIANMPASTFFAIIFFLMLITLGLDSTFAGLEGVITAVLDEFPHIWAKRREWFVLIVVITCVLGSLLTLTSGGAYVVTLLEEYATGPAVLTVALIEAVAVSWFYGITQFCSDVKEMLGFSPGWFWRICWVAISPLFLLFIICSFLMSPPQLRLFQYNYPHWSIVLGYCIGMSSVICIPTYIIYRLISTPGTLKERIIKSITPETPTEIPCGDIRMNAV

Compound	inhibition at 1 µM [1, 4] [%]	inhibition at 10 µM [2] [%]	inhibition at 10 µM [3, 5] [%]	Ki [1] [nM]	Ki [2] [nM]	Ki [3] [nM]	inhibition at 1 µM [1] [%]	inhibition at 10 µM [3, 6] [%]	inhibition at 1 µM ([1]; 1 μM, sulfonamides (Table 17)) [%]	Ki ([1]; sulfonamides (Table 17)) [nM]
CN(C)C(c1ccccc1)C1CCC(NC(=O)Nc2ccccc2[N+](=O)[O-])CC1 (stereo not drawn) [compound 76, 1-(4-((dimethylamino)(phenyl)methyl)cyclohexyl)-3-(2-nitrophenyl)urea hydrochloride]	61	84	100							
CN(C)C(CCc1ccccc1)C1CCC(O)CC1 (stereo not drawn) [compound 116, 4-(1-dimethylamino-3-phenyl-propyl)-cyclohexanol]	37	74	95							
CN(C)C(CCc1ccccc1)C1CCC(CO)CC1 (stereo not drawn) [compound 122, [4-(1-dimethylamino-3-phenyl-propyl)-cyclohexyl]-methanol]	32	77	97							
CCOC(=O)CCC1CCC(C(c2cccc(F)c2)N(C)C)CC1 (stereo not drawn) [compound 139, 3-{4-[dimethylamino-(3-fluorophenyl)-methyl]-cyclohexyl}-propionic acid ethyl ester]	90	89	94	44	58	790				
CN(C)C(c1ccccc1)C1CCC(NC(=O)Nc2ccc(F)cc2F)CC1 (stereo not drawn) [compound 74, 1-(2,4-difluorophenyl)-3-(4-((dimethylamino)(phenyl)methyl)cyclohexyl)urea hydrochloride]	88	86	93	160	120	220				
CCOC(=O)CC1CCC(C(c2cccc(F)c2)N(C)C)CC1 (stereo not drawn) [compound 130, {4-[dimethylamino-(3-fluorophenyl)-methyl]-cyclohexyl}-acetic acid ethyl ester]	82	93	82	230	16					
CN(C)C(c1ccccc1)C1CCC(NC(=O)Nc2cccc(C(F)(F)F)c2)CC1 (stereo not drawn) [compound 75, 1-(4-((dimethylamino)(phenyl)methyl)cyclohexyl)-3-(3-(trifluoromethyl)-phenyl)urea hydrochloride]	88	80	88	98	13	550				
CN(C)C(c1ccccc1)C1CCC(NCCCc2ccccc2)CC1 (stereo not drawn) [compound 85, 4-((dimethylamino)(phenyl)methyl)-N-(3-phenylpropyl)cyclohexanamine dihydrochloride]	98	77	103	2.8						
CCOC(=O)C=C1CCC(C(c2ccccc2)N(C)C)CC1 (stereo not drawn) [compound 123, [4-(dimethylamino-phenyl-methyl)-cyclohexylidene]-acetic acid ethyl ester]	75	92	66	190						
CN(C)C(c1ccccc1)C1CCC(OCc2ccc(F)cc2)CC1 (stereo not drawn) [compound 145, 4-(4-fluorobenzyloxy)cyclohexyl)-N,N-dimethyl(phenyl)methanamine hydrochloride]	73	83	84	310	290					
CN(C)C(c1ccc(Cl)cc1)C1CCC(N)CC1 (stereo not drawn) [compound 23, 4-[(4-chlorophenyl)-dimethylamino-methyl]-cyclohexylamine]	58	64	97							
CCC(CC)C(=O)NC1CCC(C(c2ccccc2)N(C)C)CC1 (stereo not drawn) [compound 93, N-(4-((dimethylamino)(phenyl)methyl)cyclohexyl)-2-ethylbutanamide hydrochloride]		75		94	660		94	48		
CN(C)C(c1cccc(F)c1)C1CCC(O)CC1 (stereo not drawn) [compound 113, 4-[dimethylamino-(3-fluorophenyl)-methyl]-cyclohexanol]	46	83	82							
CN(C)C(c1ccccc1)C1CCC(N(Cc2ccccc2)C(=O)c2ccc(F)cc2)CC1 (stereo not drawn) [compound 103, N-benzyl-N-(4-((dimethylamino)(phenyl)methyl)cyclohexyl)-4-fluoro-benzamide hydrochloride]		93		8.8	560	400	99	87		
CCOC(=O)C=C1CCC(C(c2cccc(F)c2)N(C)C)CC1 (stereo not drawn) [compound 129, {4-[dimethylamino-(3-fluorophenyl)-methyl]-cyclohexylidene}-acetic acid ethyl ester]	47	91	81	540	86					
CC(=O)N(Cc1ccccc1)C1CCC(C(c2ccccc2)N(C)C)CC1 (stereo not drawn) [compound 100, N-benzyl-N-(4-((dimethylamino)(phenyl)methyl)cyclohexyl)acetamide hydrochloride]		86		3.5	520	320	100	91		
CCOC(=O)CC1CCC(C(c2ccc(F)cc2)N(C)C)CC1 (stereo not drawn) [compound 127, {4-[dimethylamino-(4-fluorophenyl)-methyl]-cyclohexyl}-acetic acid ethyl ester]	34	90	89							
COc1ccc(S(=O)(=O)NC2CCC(C(c3ccccc3)N(C)C)CC2)cc1 (stereo not drawn) [compound 107, N-(4-((dimethylamino)(phenyl)methyl)cyclohexyl)-4-methoxybenzene-sulfonamide hydrochloride]		90	78						99	15
CN(C)C(c1ccc(F)cc1)C1CCC(CCO)CC1 (stereo not drawn) [compound 128, 2-{4-[dimethylamino-(4-fluorophenyl)-methyl]-cyclohexyl}-ethanol]	18	84	88							
CN(C)C(c1ccccc1)C1CCC(NCCc2c[nH]c3ccccc23)CC1 (stereo not drawn) [compound 83, N-(2-(1H-indol-3-yl)ethyl)-4-((dimethylamino)(phenyl)methyl)-cyclohexanamine hydrochloride]	95	93	100	7						
CN(C)C(c1ccccc1)C1CCC(NC(=O)Nc2cccc3ccccc23)CC1 (stereo not drawn) [compound 73, 1-(4-((dimethylamino)(phenyl)methyl)cyclohexyl)-3-(naphthalen-1-yl)urea]	96	90	94	46	61	180				
CN(C)C(c1cccc(F)c1)C1CCC(CCCO)CC1 (stereo not drawn) [compound 140, 3-{4-[dimethylamino-(3-fluorophenyl)-methyl]-cyclohexyl}-propan-1-ol]	31	85	94							
CN(C)C(c1ccc(F)cc1)C1CCC(CO)CC1 (stereo not drawn) [compound 118, {4-[dimethylamino-(4-fluorophenyl)-methyl]-cyclohexyl}-methanol]	33	90	91							
